One block for each compound: values may come before it.
Tested on: 299254-011-R-J1-PDC complex spheroids viability
Test: Anticancer human tumor 299254-011-R-J1-PDC patient-derived melanoma cell line growth inhibition [GQUAD]
Conditions: for IC50: curve of first compound; for viability, T/C: stronger effect = lower value
In short: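 Tumor cells were grown as complex spheroids with HUVEC endothelial cells and mesenchymal stem cells as stroma. G-quadruplex stabilizers were combined with targeted agents over half-log dilutions from near the clinical Cmax, or from 10 microM.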

[1] = second compound 0.0316 µM, first compound 0.000999 µM
[2] = second compound 0.0316 µM, first compound 0.00316 µM
[3] = second compound 0.0316 µM, first compound 0.00999 µM
[4] = second compound 0.0316 µM, first compound 0.0316 µM
[5] = second compound 0.0316 µM, first compound 0.0999 µM
[6] = second compound 0.0316 µM, first compound 0.316 µM
[7] = second compound 0.1 µM, first compound 0.000999 µM
[8] = second compound 0.1 µM, first compound 0.00316 µM
[9] = second compound 0.1 µM, first compound 0.00999 µM
[10] = second compound 0.1 µM, first compound 0.0316 µM
[11] = second compound 0.1 µM, first compound 0.0999 µM
[12] = second compound 0.1 µM, first compound 0.316 µM
[13] = second compound 0.316 µM, first compound 0.000999 µM
[14] = second compound 0.316 µM, first compound 0.00316 µM
[15] = second compound 0.316 µM, first compound 0.00999 µM
[16] = second compound 0.316 µM, first compound 0.0316 µM
[17] = second compound 0.316 µM, first compound 0.0999 µM
[18] = second compound 0.316 µM, first compound 0.316 µM
[19] = second compound 1 µM, first compound 0.000999 µM
[20] = second compound 1 µM, first compound 0.00316 µM
[21] = second compound 1 µM, first compound 0.00999 µM
[22] = second compound 1 µM, first compound 0.0316 µM
[23] = second compound 1 µM, first compound 0.0999 µM
[24] = second compound 1 µM, first compound 0.316 µM
[25] = second compound 3.16 µM, first compound 0.000999 µM
[26] = second compound 3.16 µM, first compound 0.00316 µM
[27] = second compound 3.16 µM, first compound 0.00999 µM
[28] = second compound 3.16 µM, first compound 0.0316 µM
[29] = second compound 3.16 µM, first compound 0.0999 µM
[30] = second compound 3.16 µM, first compound 0.316 µM
[31] = second compound 10 µM, first compound 0.000999 µM
[32] = second compound 10 µM, first compound 0.00316 µM
[33] = second compound 10 µM, first compound 0.00999 µM
[34] = second compound 10 µM, first compound 0.0316 µM
[35] = second compound 10 µM, first compound 0.0999 µM
[36] = second compound 10 µM, first compound 0.316 µM
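Also: spheroids exposed to the agents for seven days before readout.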
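For viability, T/C in this document: percent viability relative to DMSO vehicle control wells = 100%.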

- IC50 (second compound 0.0316 µM): > 0.316 µM
- IC50 (second compound 0.1 µM): > 0.316 µM
- IC50 (second compound 0.316 µM): > 0.316 µM
- IC50 (second compound 1 µM): > 0.316 µM
- IC50 (second compound 3.16 µM): > 0.316 µM
- IC50 (second compound 10 µM): < 0.000999 µM
Compound: CC[C@@]1(O)C(=O)OCc2c1cc1n(c2=O)Cc2cc3c(CN(C)C)c(O)ccc3nc2-1 + Cc1cnc(CNC(=O)c2c(=O)c3ccc(N4CCCN(C)CC4)nc3n3c2sc2ccccc23)cn1
- viability, T/C [1]: 127%
- viability, T/C [2]: 86.3%
- viability, T/C [3]: 96.4%
- viability, T/C [4]: 86.7%
- viability, T/C [5]: 98.5%
- viability, T/C [6]: 81.3%
- viability, T/C [7]: 87.5%
- viability, T/C [8]: 116%
- viability, T/C [9]: 81.8%
- viability, T/C [10]: 101%
- viability, T/C [11]: 88.2%
- viability, T/C [12]: 73.8%
- viability, T/C [13]: 106%
- viability, T/C [14]: 92.8%
- viability, T/C [15]: 103%
- viability, T/C [16]: 84.9%
- viability, T/C [17]: 92.4%
- viability, T/C [18]: 82.2%
- viability, T/C [19]: 76.2%
- viability, T/C [20]: 79.8%
- viability, T/C [21]: 89.5%
- viability, T/C [22]: 79.6%
- viability, T/C [23]: 74.3%
- viability, T/C [24]: 76.6%
- viability, T/C [25]: 80.8%
- viability, T/C [26]: 70.7%
- viability, T/C [27]: 89.9%
- viability, T/C [28]: 94.5%
- viability, T/C [29]: 77.7%
- viability, T/C [30]: 53.6%
- viability, T/C [31]: 0.41%
- viability, T/C [32]: 16.5%
- viability, T/C [33]: 49.5%
- viability, T/C [34]: 36.7%
- viability, T/C [35]: 0.46%
- viability, T/C [36]: 0.37%

- IC50 (second compound 0.0316 µM): > 0.316 µM
- IC50 (second compound 0.1 µM): > 0.316 µM
- IC50 (second compound 0.316 µM): > 0.316 µM
- IC50 (second compound 1 µM): > 0.316 µM
- IC50 (second compound 3.16 µM): 0.142 µM
- IC50 (second compound 10 µM): < 0.000999 µM
Compound: CCc1c2c(nc3ccc(O)cc13)-c1cc3c(c(=O)n1C2)COC(=O)[C@]3(O)CC + Cc1cnc(CNC(=O)c2c(=O)c3ccc(N4CCCN(C)CC4)nc3n3c2sc2ccccc23)cn1
- viability, T/C [1]: 102%
- viability, T/C [2]: 95.6%
- viability, T/C [3]: 68.3%
- viability, T/C [4]: 70.9%
- viability, T/C [5]: 76.7%
- viability, T/C [6]: 62.3%
- viability, T/C [7]: 95.5%
- viability, T/C [8]: 107%
- viability, T/C [9]: 76.5%
- viability, T/C [10]: 71.2%
- viability, T/C [11]: 65.5%
- viability, T/C [12]: 60.2%
- viability, T/C [13]: 93.8%
- viability, T/C [14]: 95.4%
- viability, T/C [15]: 72.4%
- viability, T/C [16]: 67.8%
- viability, T/C [17]: 68.2%
- viability, T/C [18]: 60.5%
- viability, T/C [19]: 76.4%
- viability, T/C [20]: 79.8%
- viability, T/C [21]: 77.5%
- viability, T/C [22]: 74.8%
- viability, T/C [23]: 54.6%
- viability, T/C [24]: 63.4%
- viability, T/C [25]: 77.6%
- viability, T/C [26]: 68%
- viability, T/C [27]: 64%
- viability, T/C [28]: 59%
- viability, T/C [29]: 56%
- viability, T/C [30]: 43%
- viability, T/C [31]: 0.47%
- viability, T/C [32]: 20.1%
- viability, T/C [33]: 34.8%
- viability, T/C [34]: 11.9%
- viability, T/C [35]: 0.39%
- viability, T/C [36]: 0.32%

- IC50 (second compound 0.0316 µM): > 10 µM
- IC50 (second compound 0.1 µM): > 10 µM
- IC50 (second compound 0.316 µM): > 10 µM
- IC50 (second compound 1 µM): > 10 µM
- IC50 (second compound 3.16 µM): > 10 µM
- IC50 (second compound 10 µM): 0.0316 µM
Compound: COc1cc(C2c3cc4c(cc3C(OC3OC5COC(C)OC5C(O)C3O)C3COC(=O)C23)OCO4)cc(OC)c1O (stereo unspecified) + Cc1cnc(CNC(=O)c2c(=O)c3ccc(N4CCCN(C)CC4)nc3n3c2sc2ccccc23)cn1
- viability, T/C [4]: 105%
- viability, T/C (second compound 0.0316 µM, first compound 0.1 µM): 121%
- viability, T/C [6]: 84.4%
- viability, T/C (second compound 0.0316 µM, first compound 1 µM): 90.1%
- viability, T/C (second compound 0.0316 µM, first compound 3.16 µM): 76.7%
- viability, T/C (second compound 0.0316 µM, first compound 10 µM): 86.6%
- viability, T/C [10]: 112%
- viability, T/C (second compound 0.1 µM, first compound 0.1 µM): 95.8%
- viability, T/C [12]: 89%
- viability, T/C (second compound 0.1 µM, first compound 1 µM): 87.9%
- viability, T/C (second compound 0.1 µM, first compound 3.16 µM): 95.1%
- viability, T/C (second compound 0.1 µM, first compound 10 µM): 77.7%
- viability, T/C [16]: 90%
- viability, T/C (second compound 0.316 µM, first compound 0.1 µM): 110%
- viability, T/C [18]: 130%
- viability, T/C (second compound 0.316 µM, first compound 1 µM): 105%
- viability, T/C (second compound 0.316 µM, first compound 3.16 µM): 82.4%
- viability, T/C (second compound 0.316 µM, first compound 10 µM): 63.5%
- viability, T/C [22]: 90.4%
- viability, T/C (second compound 1 µM, first compound 0.1 µM): 84.8%
- viability, T/C [24]: 103%
- viability, T/C (second compound 1 µM, first compound 1 µM): 75.9%
- viability, T/C (second compound 1 µM, first compound 3.16 µM): 84.9%
- viability, T/C (second compound 1 µM, first compound 10 µM): 61.9%
- viability, T/C [28]: 78.5%
- viability, T/C (second compound 3.16 µM, first compound 0.1 µM): 79.5%
- viability, T/C [30]: 69.1%
- viability, T/C (second compound 3.16 µM, first compound 1 µM): 73%
- viability, T/C (second compound 3.16 µM, first compound 3.16 µM): 82.4%
- viability, T/C (second compound 3.16 µM, first compound 10 µM): 59.2%
- viability, T/C [34]: 31%
- viability, T/C (second compound 10 µM, first compound 0.1 µM): 16.7%
- viability, T/C [36]: 67.1%
- viability, T/C (second compound 10 µM, first compound 1 µM): 69.8%
- viability, T/C (second compound 10 µM, first compound 3.16 µM): 33.5%
- viability, T/C (second compound 10 µM, first compound 10 µM): 0.3%
